What all share (test): Inhibition of probe labeling at screening concentration (Table 1)
What all share (format): binding

One experiment concerns PRTN_J. The settings on record: 500 μM. On the procedure:
(§1) Cells were resuspended in cold PBS on ice and sonicated with a probe sonicator to achieve lysis. 200 μL of lysate containing 5 mg/ml proteome was treated with 2 μL of 100× compound stock in a 2-mL deep-well plate. The treated lysate was subsequently incubate at 25° C. for 1 hr with shaking at 600 rpm. The treated lysate was further incubated with 2 μL of 10 mM desthiobiotin iodoacetamide probe at 25° C. for 1 hr with shaking at 600 rpm. Next, the lysate was further treat with 20 μL of solution of PBS containing 11 mM MgSO4 and 2.5% Turbonuclease stock and incubated at 25° C. for 20 minutes with shaking at 600 rpm. 1.7 mL ice-cold acetone was added to each well and incubated at −20° C. for 2 hr, followed by max speed (4200 rpm) spin for 45 min. Acetone was then decanted and the plates were blotted to remove acetone. The plates were then dried in open air for 20 minutes. After drying, the plates were then covered with foil seal and stored at −80° C. overnight.

For a further experiment, the system named is PRTN_A. The following applies: 500 μM. On the procedure:
as §1

The subject of another experiment is PRTN_G. The settings on record: 500 μM. How it is done: as §1
A further experiment relates to PRTN_F. The following applies: 500 μM. How it is done: as §1
The next experiment relates to PRTN_K. The following applies: 500 μM. How it is done: as §1
Another experiment deals with PRTN_B. The following applies: 500 μM. How it is done: as §1
A further experiment relates to PRTN_H. The settings on record: 500 μM. On the procedure:
as §1

The test system of a further experiment is PRTN_D. The following applies: 500 μM. On the procedure:
as §1

A further experiment deals with PRTN_C. The settings on record: 500 μM. On the procedure: as §1
The next experiment deals with PRTN_I. The following applies: 500 μM. How it is done: as §1
The test system of the next experiment is PRTN_E. The following applies: 500 μM. On the procedure:
as §1

A further experiment has as its target CRBN-318 (Homo sapiens, UniProt Q96SW2). Further details: endogenous in cells; host or cells: cell lysate. The settings on record: native folded protein, read-out: Percentage inhibition of probe labeling, CRBN_318. On the procedure: as §1
In the next experiment the target is CRBN-287 (Homo sapiens, UniProt Q96SW2). Further details: endogenous in cells; host or cells: cell lysate. The settings on record: native folded protein, read-out: Percentage inhibition of probe labeling, CRBN_287. How it is done: as §1
CRBN-287, sequence (Q96SW2 whole entry): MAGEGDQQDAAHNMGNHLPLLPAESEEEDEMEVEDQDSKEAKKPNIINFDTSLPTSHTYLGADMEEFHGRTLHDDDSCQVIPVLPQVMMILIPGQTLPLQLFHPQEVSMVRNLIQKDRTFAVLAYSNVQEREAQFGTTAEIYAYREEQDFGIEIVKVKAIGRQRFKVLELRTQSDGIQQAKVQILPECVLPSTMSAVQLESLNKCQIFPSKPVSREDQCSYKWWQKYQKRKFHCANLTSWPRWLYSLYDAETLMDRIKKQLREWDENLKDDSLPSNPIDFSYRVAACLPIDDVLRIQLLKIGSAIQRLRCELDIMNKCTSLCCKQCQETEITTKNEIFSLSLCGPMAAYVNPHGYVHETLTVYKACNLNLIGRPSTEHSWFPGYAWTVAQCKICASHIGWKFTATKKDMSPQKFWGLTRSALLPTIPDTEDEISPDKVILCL

CRBN-318, sequence (Q96SW2 whole entry): as above

With `CCc1ccccc1-c1cccc(NC2CCN(C(=O)/C=C/CC(C)C)CC2)c1`, in the experiment on PRTN_J, the “Percentage inhibition of probe labeling, PRTN_J” value came to 11%. Further, the “Percentage inhibition of probe labeling, PRTN_A” value with PRTN_A is listed as 10%. Besides, in the experiment on PRTN_G, the “Percentage inhibition of probe labeling, PRTN_G” value turned out to be 13%. Also, in the experiment with PRTN_F, the “Percentage inhibition of probe labeling, PRTN_F” value stood at 2%. The “Percentage inhibition of probe labeling, PRTN_K” value with PRTN_K came out at 22%. Moreover, the “Percentage inhibition of probe labeling, PRTN_B” value with PRTN_B is reported as 3%. In the experiment on PRTN_H, the “Percentage inhibition of probe labeling, PRTN_H” value turned out to be 4%. Further, in the experiment with PRTN_D, the “Percentage inhibition of probe labeling, PRTN_D” value was 17%. Also, the “Percentage inhibition of probe labeling, PRTN_C” value in the experiment with PRTN_C worked out at 14%. Further, the “Percentage inhibition of probe labeling, PRTN_I” value with PRTN_I came out at 14%. For the same compound, in the experiment with PRTN_E, the “Percentage inhibition of probe labeling, PRTN_E” value is on record as 12%. The inhibition at 500 µM on CRBN-318 stood at 96%; at CRBN-287, 98%.

In the case of `C=CC(=O)N1CCC(Nc2cc(C(N)=O)cc(-c3ccccc3CC)c2)CC1`, the “Percentage inhibition of probe labeling, PRTN_J” value in the experiment on PRTN_J is 7%. Moreover, in the experiment on PRTN_A, the “Percentage inhibition of probe labeling, PRTN_A” value was −2%. Also, the “Percentage inhibition of probe labeling, PRTN_G” value in the experiment with PRTN_G was determined as 6%. For the same compound, in the experiment with PRTN_F, the “Percentage inhibition of probe labeling, PRTN_F” value is 4%. Moreover, the “Percentage inhibition of probe labeling, PRTN_K” value with PRTN_K was 12%. For the same compound, the “Percentage inhibition of probe labeling, PRTN_B” value with PRTN_B is given as 0%. In addition, the “Percentage inhibition of probe labeling, PRTN_H” value with PRTN_H is given as 6%. Besides, the “Percentage inhibition of probe labeling, PRTN_D” value in the experiment on PRTN_D is recorded as 18%. Further, the “Percentage inhibition of probe labeling, PRTN_C” value in the experiment on PRTN_C came out at 19%. The “Percentage inhibition of probe labeling, PRTN_I” value in the experiment with PRTN_I is listed as −1%. For the same compound, the “Percentage inhibition of probe labeling, PRTN_E” value with PRTN_E was found to be 8%. Besides, the inhibition at 500 µM is 98% at CRBN-318 and 97% at CRBN-287.

Usually inhibition stands for the share of the control response that was lost under treatment.

Values taken from patent US20220298213A1, “IN VIVO ENGINEERED CEREBLON PROTEIN” (Vividion Therapeutics, Inc., priority 2018, published 2022).
